Experimental data published in patent US20240174690A1, “ANNULATED 2-AMINO-3-CYANO THIOPHENES AND DERIVATIVES FOR THE TREATMENT OF CANCER” (BOEHRINGER INGELHEIM INTERNATIONAL GMBH, priority 2021, published 2024).

Key:
KRAS (G12V)::SOS1 = KRAS (G12V)::SOS1 (Homo sapiens (Human), UniProt P01116, C118S/G12V); assay: KRAS::SOS1 AlphaScreen binding assay, KRAS G12V
Description: (§1) This assay can be used to examine the potency with which compounds according to the invention binding to (mutated) KRAS inhibit the protein-protein interaction between SOS1 and (mutated) KRAS e.g., KRAS WT, KRAS G12C, KRAS G12D, KRAS G12V, KRAS G13D. […] Low IC50 values in this assay setting are indicative of strong inhibition of protein-protein interaction between SOS1 and KRAS:
(§2) These assays measure the inhibitory effect of compounds on KRAS mutant protein-protein interactions using the Alpha Screen technology by Perkin Elmer.
(§3) The following (mutant) enzyme forms of KRAS and interacting proteins are used in these assays at the given concentrations: • KRAS (G12D) 1-169, N-terminal 6His-tag, C-terminal avi-tag (Xtal BioStructures, Inc.); final assay concentration 10 nM and SOS1 564-1049, N-terminal 229 GST-tag, TEV cleavage site (Viva Biotech Ltd); final assay concentration 5 nM; • KRAS (G12C) 1-169, N-terminal 6His-tag for purification, cleaved off, C-terminal avi-tag, biotinylated, mutations: C51S, C80L, C118S (in house); final assay concentration 7.5 nM and SOS1 564-1049, N-terminal 229 GST-tag, TEV cleavage site (Viva Biotech Ltd); final assay concentration 5 nM; • KRAS (G12V) 1-169, N-terminal 6His-tag for purification, cleaved off, C-terminal avi-tag, biotinylated, TEV cleavage site, mutation: C118S, GDP loaded (in house); final assay concentration 10 nM and SOS1 564-1049, N-terminal 229 GST-tag, TEV cleavage site (Viva Biotech Ltd); final assay concentration 10 nM; • KRAS (G13D) 1-169, N-terminal 6His-tag for purification, cleaved off, C-terminal avi-tag, biotinylated, TEV cleavage site, mutation: C118S, GDP loaded (in house); final assay concentration 10 nM and SOS1 564-1049, N-terminal 229 GST-tag, TEV cleavage site (Viva Biotech Ltd); final assay concentration 10 nM; • KRAS (WT) 1-169, N-terminal 6His-tag for purification, cleaved off, C-terminal avi-tag, biotinylated, TEV cleavage site, mutation: C118S, GDP loaded (in house); final assay concentration 10 nM and SOS1 564-1049, N-terminal 229 GST-tag, TEV cleavage site (Viva Biotech Ltd); final assay concentration 10 nM.
(§4) Test compounds dissolved in DMSO are dispensed onto assay plates (Proxiplate 384 PLUS, white, PerkinElmer; 6008289) using an Access Labcyte Workstation with the Labcyte Echo 55×. For the chosen highest assay concentration of 100 μM, 150 nL of compound solution are transferred from a 10 mM DMSO compound stock solution. A series of eleven fivefold dilutions per compound are transferred to the assay plate, compound dilutions are tested in duplicates. DMSO are added as backfill to a total volume of 150 nL.
(§5) The assays run on a fully automated robotic system in a darkened room below 100 Lux. To 150 nl of compound dilution 10 μl of a mix including KRAS mutant protein, SOS1 (final assay concentrations see above) and GDP nucleotide (Sigma G7127; final assay concentration 10 μM) in assay buffer (1×PBS, 0.1% BSA, 0.05% Tween 20) are added into columns 1-24.
(§6) After 30 minutes incubation time 5 μl of Alpha Screen bead mix in assay buffer are added into columns 1-23. Bead mix consists of AlphaLISA Glutathione Acceptor Beads (PerkinElmer, Cat No AL109) and AlphaScreen Streptavidin Donor Beads (PerkinElmer Cat No 6760002) in assay buffer at a final assay concentration of 10 μg/ml each.
(§7) Plates are kept at room temperature in a darkened incubator. After an additional 60 minutes incubation time the signal is measured in a PerkinElmer Envision HTS Multilabel Reader using the AlphaScreen specs from PerkinElmer.
(§8) Each plate contains up to 16 wells of a negative control depending on the dilution procedure (platewise or serial) (DMSO instead of test compound; with KRAS mutant::SOS1 GDP mix and bead mix; column 23) and 16 wells of a positive control (DMSO instead of test compound; with KRAS mutant::SOS1 GDP mix w/o bead mix; column 24).
(§9) As internal control known inhibitors of KRAS mutant::SOS1 interaction can be measured on each compound plate. […]

A375 cells = assay: A375 CTG proliferation assay (120 h) (melanoma, wt, B-Raf mutant, negative control); format: cell-based; settings: Homo sapiens, A-375, CTG 120 h
Protocol: A375 CTG Proliferation Assay (120 h) (Melanoma, Wt, B-Raf Mutant, Negative Control)
A375 cells (ATCC CRL-1619) are dispensed into 384-well plates, flat and clear bottom (Greiner, PNr. 781091) at a density of 300 cells per well in 60 μL DMEM (Sigma 06429)+10% Fetal Calf Serum (HyClone, PNr.: SH30084.03) and incubated at 37° C. in a CO2 incubator overnight. The next day, compounds (10 mM stock in DMSO) are added at logarithmic dose series using the HP Digital Dispenser D300 (Tecan), including DMSO controls. Plates are incubated for 120 h, and cell viability is measured using CellTiter-Glo luminescent cell viability reagent (Promega product code G7570). Viability (stated as percent of control) is defined as relative luminescence units RLU of each well divided by the RLU of cells in DMSO controls. IC50 values are determined from viability measurements by non-linear regression using a four-parameter model.

KRAS (G13D)::SOS1 = KRAS (G13D)::SOS1 (Homo sapiens (Human), UniProt P01116, C118S/G13D); assay: KRAS::SOS1 AlphaScreen binding assay, KRAS G13D
KRAS (G13D)::SOS1, sequence (P01116 other isoform, or with tags, fused parts or gaps G13D/C118S): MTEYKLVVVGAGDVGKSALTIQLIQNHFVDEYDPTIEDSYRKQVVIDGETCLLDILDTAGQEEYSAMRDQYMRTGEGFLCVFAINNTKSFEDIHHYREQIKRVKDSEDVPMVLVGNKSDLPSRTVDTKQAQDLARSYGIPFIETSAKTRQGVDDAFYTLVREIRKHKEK
Description: as §1, §2, §3, §4, §5, §6, §7, §8, §9

KRAS (G12V)::SOS1, sequence (P01116 other isoform, or with tags, fused parts or gaps G12V/C118S): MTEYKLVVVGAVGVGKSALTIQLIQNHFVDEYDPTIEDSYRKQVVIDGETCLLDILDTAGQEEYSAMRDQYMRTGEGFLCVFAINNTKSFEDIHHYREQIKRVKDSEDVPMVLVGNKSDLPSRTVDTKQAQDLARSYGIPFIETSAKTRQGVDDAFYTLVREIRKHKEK

| SMILES | IC50 (KRAS (G12V)::SOS1) [nM] | IC50 (A375 cells) [nM] | IC50 (KRAS (G13D)::SOS1) [nM] |
| --- | --- | --- | --- |
| C[C@H](Oc1cc(-n2cncc3ccnc2-3)nc(-c2noc3c2CCC[C@@]32CCCc3sc(N)c(C#N)c32)n1)[C@@H]1CCCN1C [II-105] | 2 |  |  |
| C[C@H](Oc1cc(N2CCN(C)C2=O)nc(-c2noc3c2CCC[C@@]32CCCc3sc(N)c(C#N)c32)n1)[C@@H]1CCCN1C [II-75] |  | 2540 |  |
| C[C@H](Oc1cc(N2CC[C@H](N(C)C)C2)nc(-c2noc3c2CCC[C@@]32CCCc3sc(N)c(C#N)c32)n1)[C@@H]1CCCN1C [II-49] | 54 |  | 173 |
| C[C@H](Oc1cc(N2CCNC2=O)nc(-c2noc3c2CCC[C@@]32CCCc3sc(N)c(C#N)c32)n1)[C@@H]1CCCN1C [II-64] |  | 2580 |  |
| C[C@H](Oc1cc(-n2cc(-c3cccnc3)nn2)nc(-c2noc3c2CCC[C@@]32CCCc3sc(N)c(C#N)c32)n1)[C@@H]1CCCN1C [II-123] |  | 259 |  |
| C[C@H](Oc1cc(-n2ccnc2)nc(-c2noc3c2CCC[C@@]32CCCc3sc(N)c(C#N)c32)n1)[C@@H]1C[C@@H](F)CN1C [II-120] | 5 |  |  |
| C[C@H](Oc1cc(N2CCN(C)CC2)nc(-c2noc3c2CCC[C@@]32CCCc3sc(N)c(C#N)c32)n1)[C@@H]1CCCN1C [II-55] | 11 |  | 47 |
| C[C@H](Oc1cc(N2CCNC3(CC3)C2)nc(-c2noc3c2CCC[C@@]32CCCc3sc(N)c(C#N)c32)n1)[C@@H]1CCCN1C [II-54] | 9 |  | 33 |
| C[C@H](Oc1cc(-n2cncn2)nc(-c2noc3c2CCC[C@@]32CCCc3sc(N)c(C#N)c32)n1)[C@@H]1CCCN1C [II-70] |  |  | 19 |
| C[C@H](Oc1cc(N2CCOC3(COC3)C2)nc(-c2noc3c2CCC[C@@]32CCCc3sc(N)c(C#N)c32)n1)[C@@H]1CCCN1C [II-77] |  | > 3000 | 8 |
| CO[C@@H]1C[C@@H]([C@H](C)Oc2cc(-c3ccn(C)n3)nc(-c3noc4c3CCC[C@@]43CCCc4sc(N)c(C#N)c43)n2)N(C)C1 [II-91] |  | 1140 |  |
| C[C@H](Oc1cc([C@@H]2CCOC2)nc(-c2noc3c2CCC[C@@]32CCCc3sc(N)c(C#N)c32)n1)[C@@H]1CCCN1C [II-94] | 2 | > 3000 | 9 |
| C[C@H](Oc1cc(N2CCCC3(COC3)C2)nc(-c2noc3c2CCC[C@@]32CCCc3sc(N)c(C#N)c32)n1)[C@@H]1CCCN1C [II-72] |  |  | 9 |
| CNC(=O)c1cn(-c2cc(O[C@@H](C)[C@@H]3CCCN3C)nc(-c3noc4c3CCC[C@@]43CCCc4sc(N)c(C#N)c43)n2)nn1 [II-122] |  | 761 |  |
| C[C@H](Oc1cc(-n2ccncc2=O)nc(-c2noc3c2CCC[C@@]32CCCc3sc(N)c(C#N)c32)n1)[C@@H]1CCCN1C [II-116] |  |  | 17 |
| C[C@H](Oc1cc(C2CCOCC2)nc(-c2noc3c2CCC[C@@]32CCCc3sc(N)c(C#N)c32)n1)[C@@H]1CCCN1C [II-76] |  |  | 41 |

Continued, values first:

| IC50 (KRAS (G12V)::SOS1) [nM] | IC50 (A375 cells) [nM] | IC50 (KRAS (G13D)::SOS1) [nM] | SMILES |
| --- | --- | --- | --- |
| 2 |  |  | C[C@H](Oc1cc(-n2ccc(-c3ccccn3)n2)nc(-c2noc3c2CCC[C@@]32CCCc3sc(N)c(C#N)c32)n1)[C@@H]1CCCN1C [II-119] |
| 2 |  |  | C[C@H](Oc1cc(-c2ccn(C)n2)nc(-c2noc3c2CCC[C@@]32CCCc3sc(N)c(C#N)c32)n1)[C@@H]1CCCN1C [II-96] |
| 3 |  |  | C[C@H](Oc1cc(-n2ccc(Br)n2)nc(-c2noc3c2CCC[C@@]32CCCc3sc(N)c(C#N)c32)n1)[C@@H]1CCCN1C [II-110] |
| 2 |  |  | C[C@H](Oc1cc(-c2ccccn2)nc(-c2noc3c2CCC[C@@]32CCCc3sc(N)c(C#N)c32)n1)[C@@H]1CCCN1C [II-85] |
| 8 |  |  | C[C@H](Oc1cc(N2CCc3cccnc32)nc(-c2noc3c2CCC[C@@]32CCCc3sc(N)c(C#N)c32)n1)[C@@H]1CCCN1C [II-90] |
| 3 |  |  | C[C@H](Oc1cc(-c2ccncc2)nc(-c2noc3c2CCC[C@@]32CCCc3sc(N)c(C#N)c32)n1)[C@@H]1CCCN1C [II-78] |
| 9 |  |  | C[C@H](Oc1cc(-c2cncnc2)nc(-c2noc3c2CCC[C@@]32CCCc3sc(N)c(C#N)c32)n1)[C@@H]1CCCN1C [II-82] |
| 2 |  |  | C[C@H](Oc1cc(-c2ccc(N)nc2)nc(-c2noc3c2CCC[C@@]32CCCc3sc(N)c(C#N)c32)n1)[C@@H]1CCCN1C [II-101] |
